Laboratory results from ChEMBL document CHEMBL4665770, “Design and Discovery of Natural Cyclopeptide Skeleton Based Programmed Death Ligand 1 Inhibitor as Immune Modulator for Cancer Therapy” (J Med Chem, 2020).
Square brackets hold non-standard residues; d marks the D form. Peptide text beside a SMILES is read from it. Orn = NCCC[C@H](N)C(=O)O

How the values were obtained:
[1] = target: Programmed cell death protein 1/Programmed cell death 1 ligand 1 (Homo sapiens, UniProt Q9NZQ7); test: Inhibition of PD1-Tag2/PD-L1-Tag1 (unknown origin) protein-protein interaction preincubated for 15 mins followed by addition of anti-Tag1-Eu3+ and anti-Tag2-XL665 measured after 3 hrs by HTRF assay; assay type: protein-complex assay
[2] = target: Programmed cell death protein 1/Programmed cell death 1 ligand 1 (Homo sapiens) (UniProt Q15116+Q9NZQ7); test: Inhibition of PD1-Tag2/PD-L1-Tag1 (unknown origin) protein-protein interaction at 20 uM preincubated for 15 mins followed by addition of anti-Tag1-Eu3+ and anti-Tag2-XL665 measured after 3 hrs by HTRF assay relative to control; assay type: protein-complex assay; conditions: time 195.0 min

Sequence of Programmed cell death protein 1/Programmed cell death 1 ligand 1 (Q15116 whole entry): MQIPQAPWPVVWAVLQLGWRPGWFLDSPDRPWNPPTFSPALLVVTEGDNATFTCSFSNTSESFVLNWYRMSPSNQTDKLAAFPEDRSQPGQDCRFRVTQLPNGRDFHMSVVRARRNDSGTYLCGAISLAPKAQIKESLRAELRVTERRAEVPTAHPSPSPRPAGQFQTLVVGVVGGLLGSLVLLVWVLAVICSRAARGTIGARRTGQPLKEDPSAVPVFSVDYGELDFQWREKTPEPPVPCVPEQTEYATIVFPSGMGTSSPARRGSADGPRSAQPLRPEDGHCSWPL
Sequence of Programmed cell death protein 1/Programmed cell death 1 ligand 1 (Q9NZQ7 whole entry): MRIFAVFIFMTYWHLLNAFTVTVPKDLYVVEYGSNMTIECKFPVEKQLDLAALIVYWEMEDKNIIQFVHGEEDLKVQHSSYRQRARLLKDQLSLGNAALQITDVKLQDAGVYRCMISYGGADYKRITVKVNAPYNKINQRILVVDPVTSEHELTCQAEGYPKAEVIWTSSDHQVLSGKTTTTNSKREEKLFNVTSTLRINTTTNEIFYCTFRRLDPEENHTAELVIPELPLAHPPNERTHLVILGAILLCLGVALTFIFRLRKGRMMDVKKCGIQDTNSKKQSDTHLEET

Row | SMILES | IC50 [1] [µM] | inhibition [2] [%]
1 | CCCC[C@@H]1NC(=O)[C@H](CC(=O)O)NC(=O)[C@H]([C@@H](C)O)NC(=O)[C@@H]2CCCN2C(=O)[C@@H](Cc2c[nH]c3ccccc23)NC(=O)[C@H](CC(C)C)NC(=O)[C@H](CCCNC(=N)N)NC(=O)[C@H](C(C)C)NC(=O)[C@@H]2CCCN2C(=O)[C@@H](Cc2ccccc2)NC1=O | 5.02 | 82.1
2 | CC[C@H](C)[C@@H]1NC(=O)[C@H](CC(=O)O)NC(=O)[C@H]([C@@H](C)O)NC(=O)[C@@H]2CCCN2C(=O)[C@@H](Cc2c[nH]c3ccccc23)NC(=O)[C@H](CC(C)C)NC(=O)[C@H](CCCNC(=N)N)NC(=O)[C@H]([C@@H](C)CC)NC(=O)[C@@H]2CCCN2C(=O)[C@@H](Cc2ccccc2)NC1=O | 5.37 | 80.4
3 | CC(C)C[C@@H]1NC(=O)[C@H](CCCNC(=N)N)NC(=O)[C@H](C(C)C)NC(=O)[C@@H]2CCCN2C(=O)[C@@H](Cc2ccccc2)NC(=O)[C@H](C)NC(=O)[C@H](CC(=O)O)NC(=O)[C@H](C)NC(=O)[C@@H]2CCCN2C(=O)[C@@H](Cc2ccccc2)NC1=O | 27.5 | 51.9
4 | CC(C)C[C@@H]1NC(=O)[C@H](CC(=O)O)NC(=O)[C@H]([C@@H](C)O)NC(=O)[C@@H]2CCCN2C(=O)[C@@H](Cc2ccccc2)NC(=O)[C@H](CC(C)C)NC(=O)[C@H](CCCNC(=N)N)NC(=O)[C@H](C(C)C)NC(=O)[C@@H]2CCCN2C(=O)[C@@H](Cc2ccccc2)NC1=O | 6.35 | 72.4
5 | CC(C)C[C@@H]1NC(=O)[C@H](CCCNC(=N)N)NC(=O)[C@H](C(C)C)NC(=O)[C@@H]2CCCN2C(=O)[C@@H](Cc2ccccc2)NC(=O)[C@H](CC(C)C)NC(=O)[C@H](CC(=O)O)NC(=O)[C@H](C)NC(=O)[C@@H]2CCCN2C(=O)[C@@H](Cc2ccccc2)NC1=O | 8.1 | 66.4
6 | CC(C)C[C@@H]1NC(=O)[C@H](CC(=O)O)NC(=O)[C@H](C(C)C)NC(=O)[C@@H]2CCCN2C(=O)[C@@H](Cc2ccccc2)NC(=O)[C@H](CC(C)C)NC(=O)[C@H](CCCNC(=N)N)NC(=O)[C@H](C(C)C)NC(=O)[C@@H]2CCCN2C(=O)[C@@H](Cc2ccccc2)NC1=O | 9.63 | 57.3
7 | CC(C)C[C@@H]1NC(=O)[C@H](CC(=O)O)NC(=O)[C@H](C(C)C)NC(=O)[C@@H]2CCCN2C(=O)[C@@H](Cc2c[nH]c3ccccc23)NC(=O)[C@H](CC(C)C)NC(=O)[C@H](CCCNC(=N)N)NC(=O)[C@H](C(C)C)NC(=O)[C@@H]2CCCN2C(=O)[C@@H](Cc2ccccc2)NC1=O | 7.42 | 66.8
8 | CC(C)C[C@@H]1NC(=O)[C@H](CCCNC(=N)N)NC(=O)[C@H](C(C)C)NC(=O)[C@H](CC(C)C)NC(=O)[C@@H](Cc2ccccc2)NC(=O)[C@H](C)NC(=O)[C@H](CCCNC(=N)N)NC(=O)[C@H](C(C)C)NC(=O)[C@@H]2CCCN2C(=O)[C@@H](Cc2ccccc2)NC1=O (cyclo(A[dF]LVRL[dF]PVR)) | – | 11.2
9 | CC(C)C[C@@H]1NC(=O)[C@H](CCCN)NC(=O)[C@H](C(C)C)NC(=O)[C@@H]2CCCN2C(=O)[C@@H](Cc2ccccc2)NC(=O)[C@H](CC(C)C)NC(=O)[C@H](CCCN)NC(=O)[C@H](C(C)C)NC(=O)[C@@H]2CCCN2C(=O)[C@@H](Cc2ccccc2)NC1=O (cyclo(V[Orn]L[dF]PV[Orn]L[dF]P)) | – | 6.86
10 | CC(C)C[C@@H]1NC(=O)[C@H](CO)NC(=O)[C@H]([C@@H](C)O)NC(=O)[C@@H]2CCCN2C(=O)[C@@H](Cc2ccccc2)NC(=O)[C@H](CC(C)C)NC(=O)[C@H](CCCNC(=N)N)NC(=O)[C@H](C(C)C)NC(=O)[C@@H]2CCCN2C(=O)[C@@H](Cc2ccccc2)NC1=O (cyclo(L[dF]PTSL[dF]PVR)) | – | 29.7
11 | CC(C)C[C@@H]1NC(=O)[C@H](CCCNC(=N)N)NC(=O)[C@H](C(C)C)NC(=O)[C@@H]2CCCN2C(=O)[C@@H](Cc2ccccc2)NC(=O)[C@H](C)NC(=O)[C@H](CC(=O)O)NC(=O)[C@H](C(C)C)NC(=O)[C@@H]2CCCN2C(=O)[C@@H](Cc2ccccc2)NC1=O (cyclo(A[dF]PVRL[dF]PVD)) | – | 21.7
12 | CC(C)C[C@@H]1NC(=O)[C@H](CCCNC(=N)N)NC(=O)[C@H](C(C)C)NC(=O)[C@@H]2CCCN2C(=O)[C@@H](Cc2ccccc2)NC(=O)[C@H](C)NC(=O)[C@H](CCC(=O)O)NC(=O)[C@H](C)NC(=O)[C@@H]2CCCN2C(=O)[C@@H](Cc2ccccc2)NC1=O | – | -6.08
13 | CC(C)C[C@@H]1NC(=O)[C@H](CC(=O)O)NC(=O)[C@H]([C@@H](C)O)NC(=O)[C@@H]2CCCN2C(=O)[C@@H](Cc2ccccc2)NC(=O)[C@H](Cc2cnc[nH]2)NC(=O)[C@H](CCCNC(=N)N)NC(=O)[C@H](C(C)C)NC(=O)[C@@H]2CCCN2C(=O)[C@@H](Cc2ccccc2)NC1=O (cyclo(DL[dF]PVRH[dF]PT)) | – | 7.13
14 | CC(C)C[C@@H]1NC(=O)[C@H](CCCNC(=N)N)NC(=O)[C@H](C(C)C)NC(=O)[C@@H]2CCCN2C(=O)[C@@H](Cc2ccccc2)NC(=O)[C@H](C)NC(=O)[C@H](CCCNC(=N)N)NC(=O)[C@H](C(C)C)NC(=O)[C@@H]2CCCN2C(=O)[C@@H](Cc2ccccc2)NC1=O (cyclo(A[dF]PVRL[dF]PVR)) | – | 21
15 | CC(C)C[C@@H]1NC(=O)[C@H](CCCNC(=N)N)NC(=O)[C@H](CC(=O)O)NC(=O)[C@H](C(C)C)NC(=O)[C@@H]2CCCN2C(=O)[C@@H](Cc2ccccc2)NC(=O)[C@H](CC(C)C)NC(=O)[C@H]([C@@H](C)O)NC(=O)[C@@H]2CCCN2C(=O)[C@@H](Cc2ccccc2)NC1=O (cyclo(DRL[dF]PTL[dF]PV)) | – | -4.8
